# Assay results: patent US20090054469A1, “QUINAZOLINONE DERIVATIVES AND THEIR USE AS B-RAF INHIBITORS” (ASTRAZENECA AB, priority 2005, published 2009)
# Biological target: T1, human recombinant, purified wild type His-B-Raf protein kinase (Homo sapiens, UniProt P15056)
# T1 construct: His
# Test: B-Raf In Vitro ELISA Assay
# Assay type: biochemical
# Conditions: 2.5 nM B-Raf, 0.15 μM MEK1, 10 μM ATP; 1 hour preincubation at 25° C.; phosphorylation of MEK1
# Experimental: B-Raf In Vitro ELISA Assay
# Activity of human recombinant, purified wild type His-B-Raf protein kinase was determined in vitro using an enzyme-linked immunosorbent assay (ELISA) assay format, which measures phosphorylation of the B-Raf substrate, human recombinant, purified His-derived (detagged) MEK1. The reaction utilized 2.5 nM B-Raf, 0.15 μM MEK1 and 10 μM adenosine triphosphate (ATP) in 40 mM N-(2-hydroxyethyl)piperazine-N′-(2-ethanesulfonic acid hemisodium salt (HEPES), 5 mM 1,4-dithio-DL-threitol (DTT), 10 mM MgCl2, 1 mM ethylenediaminetetraacetic acid (EDTA) and 0.2 M NaCl (1×HEPES buffer), with or without compound at various concentrations, in a total reaction volume of 25 μl in 384 well plates. B-Raf and compound were preincubated in 1×HEPES buffer for 1 hour at 25° C. Reactions were initiated with addition of MEK1 and ATP in 1×HEPES buffer and incubated at 25° C. for 50 minutes and reactions stopped by addition of 10 μl 175 mM EDTA (final concentration 50 mM) in 1×HEPES buffer. 5 μl of the assay mix was then diluted 1:20 into 50 mM EDTA in 1×HEPES buffer, transferred to 384 well black high protein binding plates and incubated overnight at 4° C. […] Blue fluorescent product was detected at excitation 325 nm and emission 420 nm using a TECAN Ultra plate reader. Data was graphed and IC50s calculated using Excel Fit (Microsoft).
# T1 sequence (P15056 whole entry): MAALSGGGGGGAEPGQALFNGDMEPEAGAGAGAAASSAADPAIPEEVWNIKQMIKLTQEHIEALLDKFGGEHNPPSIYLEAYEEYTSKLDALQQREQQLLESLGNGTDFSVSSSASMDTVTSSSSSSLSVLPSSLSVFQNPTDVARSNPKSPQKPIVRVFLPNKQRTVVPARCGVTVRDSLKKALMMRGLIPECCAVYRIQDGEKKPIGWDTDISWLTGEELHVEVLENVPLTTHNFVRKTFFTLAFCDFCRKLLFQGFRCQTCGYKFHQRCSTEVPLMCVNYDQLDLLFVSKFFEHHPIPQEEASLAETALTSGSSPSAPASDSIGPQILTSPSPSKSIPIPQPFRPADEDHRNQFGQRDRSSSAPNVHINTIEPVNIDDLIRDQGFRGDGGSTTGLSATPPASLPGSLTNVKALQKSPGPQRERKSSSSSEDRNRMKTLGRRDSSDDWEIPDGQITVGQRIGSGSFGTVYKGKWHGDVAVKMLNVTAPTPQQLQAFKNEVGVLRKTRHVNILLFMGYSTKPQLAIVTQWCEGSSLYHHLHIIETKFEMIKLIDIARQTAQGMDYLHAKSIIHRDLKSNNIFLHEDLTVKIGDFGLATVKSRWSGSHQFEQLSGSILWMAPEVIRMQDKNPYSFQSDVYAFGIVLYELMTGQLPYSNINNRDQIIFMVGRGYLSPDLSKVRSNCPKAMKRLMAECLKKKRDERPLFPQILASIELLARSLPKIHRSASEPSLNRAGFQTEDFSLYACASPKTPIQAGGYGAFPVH
row,IC50 [nM],Structure (SMILES)
1,1,"Cc1ccc(NC(=O)c2cccc(C(C)(C)C#N)c2)cc1NC(=O)c1ccc2nc[nH]c(=O)c2c1 [Example 1, N-(5-{[3-(1-Cyano-1-methylethyl)benzoyl]amino}-2-methylphenyl)-4-oxo-3,4-dihydroquinazoline-6-carboxamide]"
2,3,"Cc1ccc(NC(=O)c2cccc(C(C)(C)C#N)c2)cc1NC(=O)c1ccc2ncn(C)c(=O)c2c1 [Example 6, N-(5-{[3-(1-Cyano-1-methylethyl)benzoyl]amino}-2-methylphenyl)-3-methyl-4-oxo-3,4-dihydroquinazoline-6-carboxamide]"
